For orientation: IC50 means the concentration that inhibits the measured activity by half.

One test deals with CDK6 (Homo sapiens, UniProt Q00534). Kind of test: In vitro kinase assay with recombinant protein (32P-ATP, filtermat). Format: biochemical. The note with it: recombinant CDK6, independent in vitro kinase assay, 20μM ATP. The protocol:
Figure 1 ON108110 is a multi-kinase inhibitor (A) Structure of the ON108XXO benzo thiazolidinnes chemotype. (B) Structure of ON108110. (C) Calculation of IC50 values against CDK4 and CDK6 and (D) CK2α1 and CK2α2 by ON108110. Recombinant proteins were incubated with the indicated concentrations of ON108110 and subjected to in vitro kinase assays as described in the materials and methods section. Values obtained were plotted as a function of log drug concentration. IC50 values were determined by performing sigmoidal non-linear regression with a variable slope.
Initial testing of ON108110 against a panel of 285 functional kinases was performed by Reaction Biology Corp (Malvern, PA). Recombinant CDK4/CYCLIN D1 or CK2α1 were mixed with their respective synthetic peptide substrates (10ng) and incubated with DMSO or increasing concentrations of ON108110 in 20μl kinase buffer [50mM Tris-HCl (pH 7.5), 10mM MgCl2, 1mM EGTA, 2mM DTT and 0.01% NP-40] for 30 min. at room temperature. Kinase reactions were carried out for 20 min at 30°C in the presence of 5μl of substrate-ATP mixture (1μg RB, 20μM ATP, 20μCi γ-^32P-ATP). […] The filtermat was then air-dried and analyzed using a phosphoimager. Densitometric values were plotted as a function of log drug concentration using Prism 4 GraphPad software and the IC50 values determined by plotting sigmoidal non-linear regression curves with variable slope (n=3).

The target of the next test is CK2α2 (Homo sapiens, UniProt P19784). The test is described as above. The test is classed as biochemical. The note with it: recombinant CK2α2, independent in vitro kinase assay, 20μM ATP. The protocol: (§1) (B) Structure of ON108110. (C) Calculation of IC50 values against CDK4 and CDK6 and (D) CK2α1 and CK2α2 by ON108110. Recombinant proteins were incubated with the indicated concentrations of ON108110 and subjected to in vitro kinase assays as described in the materials and methods section. Values obtained were plotted as a function of log drug concentration. IC50 values were determined by performing sigmoidal non-linear regression with a variable slope.
(§2) Recombinant CDK4/CYCLIN D1 or CK2α1 were mixed with their respective synthetic peptide substrates (10ng) and incubated with DMSO or increasing concentrations of ON108110 in 20μl kinase buffer [50mM Tris-HCl (pH 7.5), 10mM MgCl2, 1mM EGTA, 2mM DTT and 0.01% NP-40] for 30 min. at room temperature. Kinase reactions were carried out for 20 min at 30°C in the presence of 5μl of substrate-ATP mixture (1μg RB, 20μM ATP, 20μCi γ-^32P-ATP). […] The filtermat was air-dried, blocked with methanol for 2 minutes followed by three washes with 75mM phosphoric acid. The filtermat was then air-dried and analyzed using a phosphoimager.

The next test concerns the target CDK4 (Homo sapiens, UniProt P11802). Described as above. The following applies: recombinant CDK4, independent in vitro kinase assay, 20μM ATP. The test is classed as biochemical. As for the experimental part:
as §1, §2

Test [1] deals with CDK4/6-specific RB phosphorylation in Granta-519 and CEM cells. Kind of test: Western blot of phosphorylated RB (Ser780 and Ser 807/811). The test is classed as cell-based, human. The note with it: increasing concentrations, 24 hours. The protocol:
Figure 6 Inhibition of CK2/CDK4 mediated signaling by ON108110 (A) CEM and (B) Granta-519 cells were treated with increasing concentrations of ON 108110 for 24 hours. Whole cell extracts were subjected to western blot analysis using antibodies directed against the indicated proteins. GAPDH is shown as a loading control.
Cells were grown as indicated, lysed in lysis buffer (20mM Tris, pH 8.0/ 137mM NaCl/ 10% glycerol/ 1% NP-40) supplemented with 1X protease and phosphatase inhibitor cocktail on ice and resolved by SDS-PAGE. The proteins were transferred to a nitrocellulose membrane and subjected to Western blot analysis using the indicated antibodies. Proteins were visualized using an Odyssey imaging system (LI-COR Biosciences).
(In general: In western blotting, separated proteins are transferred to a membrane and probed.)

CDK6, sequence (Q00534 whole entry): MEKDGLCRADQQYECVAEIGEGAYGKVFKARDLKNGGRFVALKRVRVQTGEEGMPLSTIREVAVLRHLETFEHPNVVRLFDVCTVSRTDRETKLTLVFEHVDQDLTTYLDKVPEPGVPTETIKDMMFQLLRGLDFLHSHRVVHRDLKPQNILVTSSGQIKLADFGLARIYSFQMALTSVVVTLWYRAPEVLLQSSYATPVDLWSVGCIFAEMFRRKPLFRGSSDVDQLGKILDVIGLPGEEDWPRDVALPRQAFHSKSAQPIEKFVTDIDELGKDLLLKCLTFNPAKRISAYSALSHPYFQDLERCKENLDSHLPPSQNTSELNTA
CDK6, sequence (P24385 whole entry partner): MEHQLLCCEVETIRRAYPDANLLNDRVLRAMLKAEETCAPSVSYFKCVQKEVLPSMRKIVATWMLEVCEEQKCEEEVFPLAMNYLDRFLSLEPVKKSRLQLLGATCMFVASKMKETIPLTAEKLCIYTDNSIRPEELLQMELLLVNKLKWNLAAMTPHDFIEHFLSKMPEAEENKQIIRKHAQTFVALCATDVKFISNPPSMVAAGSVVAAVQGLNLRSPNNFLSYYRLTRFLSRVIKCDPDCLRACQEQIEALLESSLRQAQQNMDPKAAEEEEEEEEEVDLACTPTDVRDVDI
CK2α2, sequence (P19784 whole entry): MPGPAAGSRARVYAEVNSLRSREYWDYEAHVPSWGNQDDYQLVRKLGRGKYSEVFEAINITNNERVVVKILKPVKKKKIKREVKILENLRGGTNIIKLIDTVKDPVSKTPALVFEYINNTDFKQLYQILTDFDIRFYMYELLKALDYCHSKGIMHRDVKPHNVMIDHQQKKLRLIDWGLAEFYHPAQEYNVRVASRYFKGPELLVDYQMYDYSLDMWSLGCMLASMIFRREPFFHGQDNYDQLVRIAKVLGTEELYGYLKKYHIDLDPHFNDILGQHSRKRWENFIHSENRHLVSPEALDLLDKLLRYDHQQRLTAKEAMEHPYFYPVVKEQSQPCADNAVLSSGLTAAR
CDK4, sequence (P11802 whole entry): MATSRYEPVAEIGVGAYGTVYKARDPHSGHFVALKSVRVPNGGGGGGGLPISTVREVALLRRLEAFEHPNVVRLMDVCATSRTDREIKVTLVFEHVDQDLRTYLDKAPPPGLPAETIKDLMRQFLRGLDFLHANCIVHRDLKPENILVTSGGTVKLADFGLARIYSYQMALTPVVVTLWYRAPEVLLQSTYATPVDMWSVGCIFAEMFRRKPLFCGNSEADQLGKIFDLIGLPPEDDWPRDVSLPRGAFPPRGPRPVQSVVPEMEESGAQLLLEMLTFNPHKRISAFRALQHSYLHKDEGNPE
CDK4, sequence (P24385 whole entry partner): as the sequence (P24385 whole entry partner) above

With `CC(=O)Oc1ccc(/C=C2\Sc3ccc(F)cc3NC2=O)cc1[N+](=O)[O-]` [ON108110], the IC50 on CDK6 amounted to 10 nM; at CK2α2, 2 nM; on CDK4, 6 nM. The “CDK4/6-specific RB phosphorylation (Ser780 and Ser 807/811)” value in test [1] is reported as “concentration-dependent inhibition”.
